Measured values reported in PMC8151276, “An Integrated Approach toward NanoBRET Tracers for Analysis of GPCR Ligand Engagement” (Molecules, 2021).

Tests used:
[1] = test system: 184 HiBiT-GPCRs from 51 families; test: NanoBRET screen, binding profile across the HiBiT-GPCR library; set-up: species or system human; settings: screen at 1 μM and 0.1 μM tracer
Procedure: Each tracer candidate was screened across the entire library of HiBiT-GPCR constructs using NanoBRET as the detection modality. As depicted in Figure 4A, the specificity of interactions was evaluated through decrease in BRET due to competitive displacement of a bound tracer by excess parental compound. Each tracer was analyzed for binding to each HiBiT-GPCR fusion in the absence and in the presence of competing parental compound. Briefly, HEK293 cells were transfected with HiBiT-GPCR constructs diluted into promoterless DNA to reduce expression and maximize translocation to the cell surface. Each tracer candidate was then screened at concentrations of 1 μM and 0.1 μM across cells expressing these fusions. Cells were treated for 1.5 h with tracer either alone or in the presence of 20 μM competing parental compound (i.e., control). BRET was measured upon addition of purified LgBiT and subsequent complementation with HiBiT genetically fused to a GPCR. The specificity of interactions was assessed through a decrease in BRET signal due to competitive displacement of the bound tracer. To further gauge the robustness of these interactions, the fold response over the control (i.e., BRETtracer/BRETcontrol) was calculated. We chose a 1.5-fold response, which translates to ≥7-fold signal over noise as the minimal threshold required to score an interaction as positive. […]. […]

HiBiT-GPCRs = test: NanoBRET saturation ligand-engagement assay in HEK293; type: binding, human
Description: Metabotropic GRM1 glutamate receptor, metabotropic 1 glutamate GRM2 glutamate receptor, metabotropic 2
GRM3 glutamate receptor, metabotropic 3
GRM4 glutamate receptor, metabotropic 4
GRM5 glutamate receptor, metabotropic 5
GRM7 glutamate receptor, metabotropic 7
GRM8 glutamate receptor, metabotropic 8
Glucagon ADCYAP1R1 adenylate cyclase activating polypeptide 1
(pituitary) receptor type I
Lutropin- LHCGR luteinizing hormone/choriogonadotropin choriogonadotropin receptor
Cysteinyl leukotriene CYSLTR1 cysteinyl leukotriene receptor 1
CYSLTR2 cysteinyl leukotriene receptor 2
Cell culture and transfection
HEK293 cells were obtained from American Type Culture Collection (ATCC) and cultured at 37 °C/5% CO2 in Dulbecco's Modified Eagle Medium (DMEM) (Gibco) supplemented with 10% fetal bovine serum (Seradigm) and 100 units/mL of penicillin-streptomycin (Gibco). Transfections were carried out using Viafect (Promega) at a 1:3 DNA/transfection reagent ratio. Generally, DNA encoding HiBiT-GPCR fusion was diluted 1:100 in promoterless carrier DNA. […]
in the presence of 30 μM competing unmodified compound for 90 min at room temperature. […] Filtered luminescence was then measured using GloMax Discover microplate reader (Promega) equipped with a 450-nm (8-nm band pass) filter (donor) and a 600-nm long pass filter (acceptor). BRET was calculated by dividing the acceptor emission by the donor emission. […]

Q: With `CN(CCC=C1c2ccccc2CCc2ccccc21)C(=O)CCOCCOCCOCCOCCNC(=O)CCc1ccc2n1[B-](F)(F)[N+]1=C(c3ccc[nH]3)C=CC1=C2` [Amitriptyline-e-2-NB590] as the compound, how does the “Number of GPCRs with specific interactions (≥[…] response)” value [1] read?
A: no specific interactions

Q: For `O=C(CCOCCOCCOCCOCCNC(=O)CCc1ccc2n1[B-](F)(F)[N+]1=C(c3ccc[nH]3)C=CC1=C2)NCCCN1CCN(C2=Nc3cc(Cl)ccc3Nc3ccccc32)CC1` [Clozapine-a-2-NB590], which Concentration-dependent binding (HiBiT-GPCRs; ADRA2A and HTR1D, competing Clozapine (30 μM)) is on record?
A: specific but suffered from high background

Q: What about the EC50 (HiBiT-GPCRs; range over 17 of the 19 GPCRs, background corrected with competing Clozapine (30 μM), read-out: EC50 values (concentration-dependent tracer binding)) of the same compound?
A: 1 to 600 nM
